Data from patent US11352371B2, “Thienopyrimidine derivatives as ACC inhibitors and uses thereof” (Gilead Sciences, Inc., priority 2019, dated 2022).

System: HepG2 cells
Assay: In vitro De Novo Lipogenesis (DNL) assay, 13C-acetate incorporation into palmitic acid
Assay type: cell-based
Settings: Homo sapiens, 1 hour preincubation, 24 hours with 10 mM 13C-labeled acetate
Experimental: De Novo Lipogenesis (DNL) was measured in vitro in HepG2 cells by quantifying the incorporation of ^13C-labeled acetate into palmitic acid.
HepG2 cells were plated in growth medium (DMEM (Corning cat #15-018-CM) supplemented with 10% FBS (HyClone cat #SH30071-03), and 1× penicillin, streptomycin, glutamine (Corning cat #30-009-CI)) at 10,000 cells/well in a 384-well cell culture-treated plate (Greiner cat #781091). The cells were then incubated overnight at 37° C., 5% CO2. The next day, the cells were washed twice with sterile DPBS (Corning cat #21-031-CM) and the culture medium was changed to fresh growth medium. The compounds of interest were dosed to cells, followed by a 1 hour incubation at 37° C., 5% CO2. ^13C-labeled acetate (Sigma-Aldrich cat #279315-1G) was added to the culture medium at a concentration of 10 mM and the cells were incubated for 24 hours at 37° C., 5% CO2.
In order to analyze the lipid content of the HepG2 cells, the culture medium was removed and the cells were lysed by adding 30 μL of 0.1 M NaOH. After 5 minutes of incubation at room temperature, 15 μL of cell lysate was transferred to a 384-well deep-well plate (Sigma-Aldrich cat #BR701355-48EA) containing 15 μL of 7.3% KOH in ethanol and mixed. This plate was sealed and incubated at 70° C. for 4 hours to hydrolyze the lipids to free fatty acids. 100 μL of acetonitrile was then added and the plate was spun at 3,700 g for 20 minutes to separate the organic and aqueous phases. 50 μL from the top (organic) phase was transferred to a new 384-well plate (NUNC cat #264573) and the samples were analyzed by mass spectrometry using a RapidFire coupled to a QTOF mass spectrometer. The sum of the area under curve (AUC) for palmitate containing 3 to 7 ^13C was normalized with the AUC of oleate and plotted against compound concentration to determine the potency of ACC inhibitors. […]

| Structure (SMILES) | EC50 [nM] |
| --- | --- |
| COc1ccccc1[C@H](Cn1c(=O)n(C(C)(C)C(=O)NS(=O)(=O)C2(C(F)F)CC2)c(=O)c2c(C)c(-c3ncco3)sc21)O[C@@H]1C[C@H]2CC[C@@H](C1)O2 [Example 2, 2-(1-((R)-2-(((1R,3s,5S)-8-oxabicyclo[3.2.1]octan-3-yl)oxy)-2-(2-methoxyphenyl)ethyl)-5-methyl-6-(oxazol-2-yl)-2,4-dioxo-1,4-dihydrothieno[2,3-d]pyrimidin-3(2H)-yl)-N-((1-(difluoromethyl)cyclopropyl)sulfonyl)-2-methylpropanamide] | 5.9 |
| Cc1c(-n2nccn2)sc2c1c(=O)n(C1(C(=O)NS(=O)(=O)C3(C)CC3)CC1)c(=O)n2C[C@H](O[C@@H]1C[C@H]2CC[C@@H](C1)O2)c1cc(F)ccc1OC(F)F [Example 28, 1-(1-((R)-2-(((1R,3s,5S)-8-oxabicyclo[3.2.1]octan-3-yl)oxy)-2-(2-(difluoromethoxy)-5-fluorophenyl)ethyl)-5-methyl-2,4-dioxo-6-(2H-1,2,3-triazol-2-yl)-1,4-dihydrothieno[2,3-d]pyrimidin-3(2H)-yl)-N-((1-methylcyclopropyl)sulfonyl)cyclopropane-1-carboxamide] | 0.9 |
| COCCOc1ccccc1[C@H](Cn1c(=O)n(C2(C(=O)NS(=O)(=O)C3(C)CC3)CC2)c(=O)c2c(C)c(-n3nccn3)sc21)O[C@@H]1C[C@H]2CC[C@@H](C1)O2 [Example 30, 1-(1-((R)-2-(((1R,3s,5S)-8-oxabicyclo[3.2.1]octan-3-yl)oxy)-2-(2-(2-methoxyethoxy)phenyl)ethyl)-5-methyl-2,4-dioxo-6-(2H-1,2,3-triazol-2-yl)-1,4-dihydrothieno[2,3-d]pyrimidin-3(2H)-yl)-N-((1-methylcyclopropyl)sulfonyl)cyclopropane-1-carboxamide] | 33.1 |
| COc1ccccc1[C@H](Cn1c(=O)n([C@@H](C)C(=O)NS(=O)(=O)C2(C)CC2)c(=O)c2c(C)c(-c3ncco3)sc21)O[C@@H]1C[C@H]2CC[C@@H](C1)O2 [Example 16, (S)-2-(1-((R)-2-(((1R,3s,5S)-8-oxabicyclo[3.2.1]octan-3-yl)oxy)-2-(2-methoxyphenyl)ethyl)-5-methyl-6-(oxazol-2-yl)-2,4-dioxo-1,4-dihydrothieno[2,3-d]pyrimidin-3(2H)-yl)-N-((1-methylcyclopropyl)sulfonyl)propanamide] | 1.9 |
| Cc1c(-n2nccn2)sc2c1c(=O)n(C1(C(=O)NS(=O)(=O)C(C)(C)C)CC1)c(=O)n2C[C@H](O[C@@H]1C[C@H]2CC[C@@H](C1)O2)c1ccccc1OC(F)F [Example 27, 1-(1-((R)-2-(((1R,3s,5S)-8-oxabicyclo[3.2.1]octan-3-yl)oxy)-2-(2-(difluoromethoxy)phenyl)ethyl)-5-methyl-2,4-dioxo-6-(2H-1,2,3-triazol-2-yl)-1,4-dihydrothieno[2,3-d]pyrimidin-3(2H)-yl)-N-(tert-butylsulfonyl)cyclopropane-1-carboxamide] | 363 |
| Cc1c(-c2ncco2)sc2c1c(=O)n(C(C)(C)C(=O)NS(=O)(=O)C(C)(C)C)c(=O)n2C[C@H](O[C@@H]1C[C@H]2CC[C@@H](C1)O2)c1cc(F)ccc1OC(F)F [Example 8, 2-(1-((R)-2-(((1R,3s,5S)-8-oxabicyclo[3.2.1]octan-3-yl)oxy)-2-(2-(difluoromethoxy)-5-fluorophenyl)ethyl)-5-methyl-6-(oxazol-2-yl)-2,4-dioxo-1,4-dihydrothieno[2,3-d]pyrimidin-3(2H)-yl)-N-(tert-butylsulfonyl)-2-methylpropanamide] | 7 |
| Cc1c(-n2nccn2)sc2c1c(=O)n(C1(C(=O)NS(=O)(=O)C3(C)CC3)CC1)c(=O)n2C[C@H](O[C@@H]1C[C@H]2CC[C@@H](C1)O2)c1ccccc1OC(F)F [Example 26, 1-(1-((R)-2-(((1R,3s,5S)-8-oxabicyclo[3.2.1]octan-3-yl)oxy)-2-(2-(difluoromethoxy)phenyl)ethyl)-5-methyl-2,4-dioxo-6-(2H-1,2,3-triazol-2-yl)-1,4-dihydrothieno[2,3-d]pyrimidin-3(2H)-yl)-N-((1-methylcyclopropyl)sulfonyl)cyclopropane-1-carboxamide] | 24.6 |
| Cc1c(-c2ncco2)sc2c1c(=O)n(C(C)(C)C(=O)NS(=O)(=O)C1CC1)c(=O)n2C[C@H](O[C@@H]1C[C@H]2CC[C@@H](C1)O2)c1cc(F)ccc1OC(F)F [Example 7, 2-(1-((R)-2-(((1R,3s,5S)-8-oxabicyclo[3.2.1]octan-3-yl)oxy)-2-(2-(difluoromethoxy)-5-fluorophenyl)ethyl)-5-methyl-6-(oxazol-2-yl)-2,4-dioxo-1,4-dihydrothieno[2,3-d]pyrimidin-3(2H)-yl)-N-(cyclopropylsulfonyl)-2-methylpropanamide] | 7.6 |
| Cc1c(-n2nccn2)sc2c1c(=O)n(C(C)(C)C(=O)NS(=O)(=O)C1(C)CC1)c(=O)n2C[C@H](O[C@H]1C[C@H]2CC[C@@H](C1)O2)c1ccccc1OC(F)F [Example 21, 2-(1-((R)-2-(((1R,3r,5S)-8-oxabicyclo[3.2.1]octan-3-yl)oxy)-2-(2-(difluoromethoxy)phenyl)ethyl)-5-methyl-2,4-dioxo-6-(2H-1,2,3-triazol-2-yl)-1,4-dihydrothieno[2,3-d]pyrimidin-3(2H)-yl)-2-methyl-N-((1-methylcyclopropyl)sulfonyl)propanamide] | 29.7 |
| Cc1c(-c2ncco2)sc2c1c(=O)n(C1(C(=O)NS(=O)(=O)C3(C)CC3)CC1)c(=O)n2C[C@H](O[C@@H]1C[C@H]2CC[C@@H](C1)O2)c1ccccc1OC(F)F [Example 14, 1-(1-((R)-2-(((1R,3s,5S)-8-oxabicyclo[3.2.1]octan-3-yl)oxy)-2-(2-(difluoromethoxy)phenyl)ethyl)-5-methyl-6-(oxazol-2-yl)-2,4-dioxo-1,4-dihydrothieno[2,3-d]pyrimidin-3(2H)-yl)-N-((1-methylcyclopropyl)sulfonyl)cyclopropane-1-carboxamide] | 29.8 |
| Cc1c(-c2ncco2)sc2c1c(=O)n([C@@H](C)C(=O)NS(=O)(=O)C1(C)CC1)c(=O)n2C[C@H](O[C@@H]1C[C@H]2CC[C@@H](C1)O2)c1cc(F)ccc1OC(F)F [Example 15, (S)-2-(1-((R)-2-(((1R,3s,5S)-8-oxabicyclo[3.2.1]octan-3-yl)oxy)-2-(2-(difluoromethoxy)-5-fluorophenyl)ethyl)-5-methyl-6-(oxazol-2-yl)-2,4-dioxo-1,4-dihydrothieno[2,3-d]pyrimidin-3(2H)-yl)-N-((1-methylcyclopropyl)sulfonyl)propanamide] | 2000 |
| COc1ccccc1[C@H](Cn1c(=O)n(C(C)(C)C(=O)NS(=O)(=O)C2(C)CC2)c(=O)c2c(C)c(C#N)sc21)O[C@@H]1C[C@H]2CC[C@@H](C1)O2 [Example 32, 2-(1-((R)-2-(((1R,3s,5S)-8-oxabicyclo[3.2.1]octan-3-yl)oxy)-2-(2-methoxyphenyl)ethyl)-6-cyano-5-methyl-2,4-dioxo-1,4-dihydrothieno[2,3-d]pyrimidin-3(2H)-yl)-2-methyl-N-((1-methylcyclopropyl)sulfonyl)propanamide] | 9.9 |
| Cc1c(-c2ncco2)sc2c1c(=O)n(C1(C(=O)NS(=O)(=O)C3(C)CC3)CC1)c(=O)n2C[C@H](O[C@@H]1C[C@H]2CC[C@@H](C1)O2)c1cc(F)ccc1OC(F)F [Example 10, 1-(1-((R)-2-(((1R,3s,5S)-8-oxabicyclo[3.2.1]octan-3-yl)oxy)-2-(2-(difluoromethoxy)-5-fluorophenyl)ethyl)-5-methyl-6-(oxazol-2-yl)-2,4-dioxo-1,4-dihydrothieno[2,3-d]pyrimidin-3(2H)-yl)-N-((1-methylcyclopropyl)sulfonyl)cyclopropane-1-carboxamide] | 48.3 |
| COc1ccccc1[C@H](Cn1c(=O)n(C(C)(C)C(=O)NS(=O)(=O)C2(C)CC2)c(=O)c2c(C)c(-n3nccn3)sc21)O[C@@H]1C[C@H]2CC[C@@H](C1)O2 [Example 19, 2-(1-((R)-2-(((1R,3s,5S)-8-oxabicyclo[3.2.1]octan-3-yl)oxy)-2-(2-methoxyphenyl)ethyl)-5-methyl-2,4-dioxo-6-(2H-1,2,3-triazol-2-yl)-1,4-dihydrothieno[2,3-d]pyrimidin-3(2H)-yl)-2-methyl-N-((1-methylcyclopropyl)sulfonyl)propanamide] | 1 |
| Cc1c(-n2nccn2)sc2c1c(=O)n(C1(C(=O)NS(=O)(=O)C(C)(C)C)CC1)c(=O)n2C[C@H](O[C@@H]1C[C@H]2CC[C@@H](C1)O2)c1cc(F)ccc1OC(F)F [Example 29, 1-(1-((R)-2-(((1R,3s,5S)-8-oxabicyclo[3.2.1]octan-3-yl)oxy)-2-(2-(difluoromethoxy)-5-fluorophenyl)ethyl)-5-methyl-2,4-dioxo-6-(2H-1,2,3-triazol-2-yl)-1,4-dihydrothieno[2,3-d]pyrimidin-3(2H)-yl)-N-(tert-butylsulfonyl)cyclopropane-1-carboxamide] | 10.2 |
